Tested on: mouse peritoneal macrophages
Assay: qPCR of macrophage activation genes
Type: cell-based
Method: Three milliliters of 4% Thioglycolate solution was injected intraperitoneally into 8-12 week old C57BL/6 mice. Three days later, macrophages were collected by lavaging the peritoneal cavity with PBS. The cells were then resuspended in DMEM containing 10% FBS. After 2 h, non-adherent cells were washed away with PBS and the macrophages were cultured overnight in serum free DMEM. The macrophages were then treated with DMEM containing IL4 (10 ng/ml, BioAbChem Inc. Ladson, S.C.) or LPS (100 ng/ml, Sigma-Aldrich) and IFNγ (20 ng/ml, BioAbChem Inc) with or without emodin. Emodin was purchased from Nanjing Langze Medicine and Technology Co. Ltd (Nanjing, China) and dissolved in DMSO at a concentration of 10 mg/ml as a stock solution.
For qPCR, macrophages were lysed with Qiazol and RNA was extracted using Zymo research Direct-zol RNA isolation kit. cDNA was then made from 1 microgram of RNA using iScript cDNA Synthesis Kit (Bio-Rad Life Science). Run conditions were 95° C. for 10 s, 58° C. for 15 s, 70° C. for 15 s. Samples were run in duplicate on a Bio-rad CFX Real Time thermocycler.

Cc1cc(O)c2c(c1)C(=O)c1cc(O)cc(O)c1C2=O [emodin]
expression of polarization markers iNOS, Arg1 and YM1 in naïve macrophages (emodin 25 or 50 μM, 24 h): no effects | expression of M1 genes TNFα, CXCL2 and CXCL10, and M2 gene Mrc1 (qPCR, LPS/IFNγ vs IL4 settings): inversely regulated | expression of M2 genes Arg1 and Chi3I3 (qPCR, under IL4 stimulation): inhibited | expression of receptors TLR4 and CSFr1 (qPCR, under LPS/IFNγ or IL4 stimulation, respectively): inhibited the expression | expression of IL1β, iNOS, IL6, MMP2 and 9 (qPCR, under LPS/IFNγ stimulation): inhibited the expression | expression of IRF5, SOCS1 and CCL2 (qPCR, under both IL4 and LPS stimulation): inhibited the expression
